Measurements reported in patent publication US6613883B1, “Screening assays for compounds that cause apoptosis and related compounds” (The United States of America as represented by the …, priority 1994, dated 2003).
“Also recorded” adds a separate entry of the source.

What was measured:
[1] = target: T1, binding of p53 to XPB (Homo sapiens, UniProt P04637); assay: Competitive inhibition by peptides of XPB binding to GST-p53-WT; details: peptide preincubated with GST-p53-WT 30 min on ice, 12-596 nM
T1 construct: was used for in vitro translation of full length XPB protein; made in house; host or cells: GST-p53-WT: Escherichia coli; XPB: cell-free in vitro transcription/translation (Promega)
Description: FIG. 4. Peptides corresponding to helicase motif III of XPB and the C-terminus of p53 prevent XPB from binding to GST-p53. Four different synthetic peptides were preincubated with 2 μg GST-p53WT for 30 minutes on ice before the addition of ^35S-labeled, in vitro-translated XPB for 60 min at RT. Peptide #464 corresponds to residues 464-478 of XPB (lanes 2-4; 12, 120, and 596 nM), peptide #479 corresponds to residues 479-493 of XPB (lanes 5-7; 12, 116, and 578 nM), peptide #99 corresponds to residues 100-115 of HBX (lanes 8-9; 111 and 554 nM), and peptide #p53cp corresponds to residues 367-387 of p53 (lanes 11-12; 85 and 424 nM).
(§1) The helicase motif III in XPB and the C-terminal region of p53 are both important regions that are involved in the binding of p53 to XPB. […] Incubation conditions for the binding assays and analysis of binding was then carried out as described in Example 2 herein.

[2] = target: T2, XPB helicase within BTF2-TFIIH (Homo sapiens, UniProt P19447); assay: BTF2-TFIIH helicase assay, 3'→5' (XPB); type: biochemical; details: 6, 18, 120 ng wild-type p53 or 7, 21, 140 ng p53-273H
T2 construct: XPD and XPB helicase activity within the native BTF2-TFIIH complex; endogenous in cells; host or cells: HeLa cell nuclear extract (HAP fraction)

[3] = test system: normal primary human fibroblasts (C5RO); assay: Apoptosis after microinjection of p53 expression vectors; type: cell-based; details: for effect of coinjected mutant p53 on induction of apoptosis by wt p53: expression vectors for wt and mutant p53 coinjected into normal human fibroblasts; for % apoptotic cells: normal fibroblasts (C5RO), of p53 positive cells; for % apoptotic cells / p53 localization (% cells) both / p53 localization (% cells) cytoplasmic / p53 localization (% cells) nuclei: 24 hr after microinjection; for p53 localization (% cells) both / p53 localization (% cells) cytoplasmic / p53 localization (% cells) nuclei: normal fibroblasts
[4] = target: T3, XPD helicase within BTF2-TFIIH (Homo sapiens, UniProt P18074); assay: BTF2-TFIIH helicase assay, 5'→3' (XPD); type: biochemical; details: 6, 18, 120 ng wild-type p53 or 7, 21, 140 ng p53-273H
T3 construct: XPD and XPB helicase activity within the native BTF2-TFIIH complex; endogenous in cells; host or cells: HeLa cell nuclear extract (HAP fraction)

[5] = test system: XPB binding to mutant p53; assay: Peptide inhibition of XPB binding to mutant p53; design: species or system human; details: data not shown
Description: as §1

[6] = target: T4, wild type p53 (Homo sapiens, UniProt P04637); assay: Binding of XPB proteins with deletion mutations to wild type p53; details: for binding of in vitro-translated XPB deletion mutant to GST-p53-WT: compared with wild-type XPB
T4 construct: made in house; host or cells: Escherichia coli
Description: FIGS. 3A, 3B and 3C. p53 binds to XPB helicase motifs Ia, II and III. […] Twenty percent of the original input was loaded in parallel as the references (lanes 1-3). B. In vitro-translated wild-type p53 protein was mixed with GSH-beads loaded with 4 μg of GST (lane 2), 2 μg of GST-XPB (WT) (lane 3), or 2 μg of GST-XPB (truncated XPB with 80-480 residues) (lane 4). Bound proteins were analyzed on SDS/PAGE. The original input (100%) was included as a reference (lane 1). C. Schematic representation of the full-length or the truncated XPB proteins used in binding assays. Black boxes in the bars are the putative helicase motifs conserved across the helicase superfamily. The small open bar from residues 354 to 496 covers the region which binds p53, with the closed bar in the right side covering motif III representing the higher affinity binding site. Helicase motif 1, residues 337-351; motif Ia, residues 361-374; motif II, residues 434-446; motif III, residues 462-480; motif IV, residues 576-592; motif V, residues 601-621; motif VI, residues 630-649.
The binding assays were done in 500 μl IP buffer (50 mM Tris-HCl, pH8.0/120 mM NaCl/0.5% Nonidet P-40) containing the ^35S-labeled, in vitro translated proteins and GST fusion proteins loaded on GSH-beads at RT for 60 min. After washing five times with IP buffer, the bound proteins were released by boiling the beads in Laemmli buffer for 5 min, separated by SDS-PAGE, and visualized by fluolorography, as described in Wang, X. W., et al. (1994) Proc. Natl. Acad. Sci., USA 91:2230-2234.
XPB contains 7 putative helicase motifs (FIG. 3C, black bars) which are conserved among the helicase superfamily and are indispensable for NER activity. […] The XPB mutants were produced a s described in Example 1, herein, and the binding studies with wild type p53 were carried out as described in Example 2, herein.

Peptide #p53cp: amino acid residues 367-387 of human wild type p53 (SHLKSKKGQSTSRHKKLMFKT)
competition of in vitro-translated XPB from GST-p53 [1]: competed; also recorded: capable of inhibiting the binding

99: non relevant peptide from HBV, residues 100-115 of HBX [compound 99, reference compound]
competition of in vitro-translated XPB from GST-p53 [1]: failed to do so; also recorded: enhance binding

273^His: p53 mutated at codon 273 (Arg→His); expression vector or baculovirus-produced protein
inhibition of XPB helicase activity of BTF2-TFIIH [2]: No inhibition
effect of coinjected mutant p53 on induction of apoptosis by wt p53 [3]: completely abolished
% apoptotic cells [3]: 7(30) %
% apoptotic cells ([3]; listed as 273]^His): significantly reduced
p53 localization (% cells) both [3]: 73 % cells
p53 localization (% cells) cytoplasmic [3]: 0 % cells
p53 localization (% cells) nuclei [3]: 27 % cells
inhibition of XPD helicase activity of BTF2-TFIIH [4]: No inhibition

249^Ser: p53 mutant 249Ser, microinjected as CMV expression vector
effect of coinjected mutant p53 on induction of apoptosis by wt p53 [3]: completely abolished
% apoptotic cells [3]: 0(34) %
p53 localization (% cells) both [3]: 17 % cells
p53 localization (% cells) cytoplasmic [3]: 77 % cells
p53 localization (% cells) nuclei [3]: 6 % cells

Peptide #464: amino acid residues 464 to 478 of XPB, helicase motif III region (LGLTATLVREDDKIV)
competition of in vitro-translated XPB from GST-p53 ([1]; listed as #464): efficiently competed; also recorded: capable of inhibiting the binding
inhibition of XPB binding to mutant p53 [5]: did not inhibit

361 to 393: fragment of the c-terminus of wt p53, amino acid residues 361 to 393
induction of apoptosis by fragments of the c-terminus of wt p53 ([3]; cells and delivery not stated for the fragments): can also induce apoptosis

479: residues 479 to 493 of XPB (DLNFLIGPKLYEANW) [compound 479, reference compound]
competition of in vitro-translated XPB from GST-p53 [1]: failed to do so; also recorded: enhance binding

B1: GST-XPB-80/480: GST fused to amino acids 80 to 480 of XPB (protein, UniProt P19447 80-480, looked up, fragment)
chain: PDGHIFLEAFSPVYKYAQDFLVAIAEPVCRPTHVHEYKLTAYSLYAAVSVGLQTSDITEYLRKLSKTGVPDGIMQFIKLCTVSYGKVKLVLKHNRYFVESCHPDVIQHLLQDPVIRECRLRNSEGEATELITETFTSKSAISKTAESSGGPSTSRVTDPQGKSDIPMDLFDFYEQMDKDEEEEEETQTVSFEVKQEMIEELQKRCIHLEYPLLAEYDFRNDSVNPDINIDLKPTAVLRPYQEKSLRKMFGNGRARSGVIVLPCGAGKSLVGVTAACTVRKRCLVLGNSAVSVEQWKAQFKMWSTIDDSQICRFTSDAKDKPIGCSVAISTYSMLGHTTKRSWEAERVMEWLKTQEWGLMILDEVHTIPAKMFRRVLTIVQAHCKLGLTATLVREDDKIVDL
modifications: GST fusion
notes: GST fused to amino acids 80 to 480 of XPB
binding of in vitro-translated human wild-type p53 to GST-XPB protein ([6]; GSH-beads loaded with GST-XPB protein): significantly less binding

B2: ΔC354: XPB deletion mutant terminating at residue 354 (helicase motifs Ia to VI deleted) (protein)
chain: MGKRDRADRDKKKSRKRHYEDEEDDEEDAPGNDPQEAVPSAAGKQVDESGTKVDEYGAKDYRLQMPLKDDHTSRPLWVAPDGHIFLEAFSPVYKYAQDFLVAIAEPVCRPTHVHEYKLTAYSLYAAVSVGLQTSDITEYLRKLSKTGVPDGIMQFIKLCTVSYGKVKLVLKHNRYFVESCHPDVIQHLLQDPVIRECRLRNSEGEATELITETFTSKSAISKTAESSGGPSTSRVTDPQGKSDIPMDLFDFYEQMDKDEEEEEETQTVSFEVKQEMIEELQKRCIHLEYPLLAEYDFRNDSVNPDINIDLKPTAVLRPYQEKSLRKMFGNGRARSGVIVLPCGAGKSLVGVTAA
binding of in vitro-translated XPB deletion mutant to GST-p53-WT [6]: completely abolished the binding

B3: ΔC496: XPB deletion mutant terminating at residue 496 (helicase motifs IV, V and VI deleted) (protein)
chain: MGKRDRADRDKKKSRKRHYEDEEDDEEDAPGNDPQEAVPSAAGKQVDESGTKVDEYGAKDYRLQMPLKDDHTSRPLWVAPDGHIFLEAFSPVYKYAQDFLVAIAEPVCRPTHVHEYKLTAYSLYAAVSVGLQTSDITEYLRKLSKTGVPDGIMQFIKLCTVSYGKVKLVLKHNRYFVESCHPDVIQHLLQDPVIRECRLRNSEGEATELITETFTSKSAISKTAESSGGPSTSRVTDPQGKSDIPMDLFDFYEQMDKDEEEEEETQTVSFEVKQEMIEELQKRCIHLEYPLLAEYDFRNDSVNPDINIDLKPTAVLRPYQEKSLRKMFGNGRARSGVIVLPCGAGKSLVGVTAACTVRKRCLVLGNSAVSVEQWKAQFKMWSTIDDSQICRFTSDAKDKPIGCSVAISTYSMLGHTTKRSWEAERVMEWLKTQEWGLMILDEVHTIPAKMFRRVLTIVQAHCKLGLTATLVREDDKIVDLNFLIGPKLYEANWMEL
binding of in vitro-translated XPB deletion mutant to GST-p53-WT [6]: did not alter the binding
